# Data as given in patent US12391685B2, “Inhibitors of RNA-guided nuclease target binding and uses thereof” (THE BROAD INSTITUTE, INC., priority 2018, dated 2025).
# Biological target: SpCas9 (Streptococcus pyogenes serotype M1, UniProt Q99ZW2)
# Assay: eGFP-disruption assay in U2OS.eGFP.PEST cells
# Format: cell-based, S. pyogenes
# Set-up: host or cells: U2OS.eGFP.PEST
# Conditions: screen of structural analogs of BRD7087; 15 μM compound, 24 h, U2OS.eGFP.PEST cells
# Protocol: SpCas9 nuclease activity in eGFP-disruption assay. Approximately 200,000 U2OS.eGFP-PEST cells were nucleofected following two different methods either by nucleofecting plasmids or RNP using the SE Cell Line 4D-Nucleofector™ X Kit (Lonza) according to the manufacturer's protocol. In the plasmid nucleofection method, cells were nucleofected either with 440 ng of SpCas9 (Addgene Plasmid #43861) or 400 ng of SpCas9 along with 40 ng of sgRNA (pFYF1320 eGFP Site #1, Addgene Plasmid #47511). Cells nucleofected only with SpCas9-expressing plasmid were used as the transfection control. In the RNP nucleofection method, either […] SpCas9 or 20 pmol preformed SpCas9:gRNA (eGFP Site #1) complex were nucleofected. Approximately 20,000 transfected cells/well were plated in 4 replicates in a 96-well plate (Corning® 3904). Cells were incubated with the indicated amount of compound or DMSO for 24 h post transfection. A DMSO solution of compound (20 mM) was resuspended in the 10% FBS containing growth media and thoroughly mixed before adding to the cells. Cells were then fixed using 4% paraformaldehyde and imaged with the HCS NuclearMask™ Blue Stain (Life Technologies) as the nuclear counter-staining agent. Imaging was performed with an ImageXpress Micro automated microscope (Molecular Devices) at 10× magnification under three excitation channels (blue, green and red) acquiring nine sites per well. Images were analyzed using MetaXpress software and data were plotted using GraphPad Prism 6.
# The Z′-value was calculated using the equation (1), where σ1 and σ2 are the standard deviations of DMSO control and SpCas9:gRNA control respectively. μ1 and μ2 are the mean % GFP^− cell population for DMSO control and SpCas9:gRNA control, respectively.
# Sequence of SpCas9 (Q99ZW2 whole entry): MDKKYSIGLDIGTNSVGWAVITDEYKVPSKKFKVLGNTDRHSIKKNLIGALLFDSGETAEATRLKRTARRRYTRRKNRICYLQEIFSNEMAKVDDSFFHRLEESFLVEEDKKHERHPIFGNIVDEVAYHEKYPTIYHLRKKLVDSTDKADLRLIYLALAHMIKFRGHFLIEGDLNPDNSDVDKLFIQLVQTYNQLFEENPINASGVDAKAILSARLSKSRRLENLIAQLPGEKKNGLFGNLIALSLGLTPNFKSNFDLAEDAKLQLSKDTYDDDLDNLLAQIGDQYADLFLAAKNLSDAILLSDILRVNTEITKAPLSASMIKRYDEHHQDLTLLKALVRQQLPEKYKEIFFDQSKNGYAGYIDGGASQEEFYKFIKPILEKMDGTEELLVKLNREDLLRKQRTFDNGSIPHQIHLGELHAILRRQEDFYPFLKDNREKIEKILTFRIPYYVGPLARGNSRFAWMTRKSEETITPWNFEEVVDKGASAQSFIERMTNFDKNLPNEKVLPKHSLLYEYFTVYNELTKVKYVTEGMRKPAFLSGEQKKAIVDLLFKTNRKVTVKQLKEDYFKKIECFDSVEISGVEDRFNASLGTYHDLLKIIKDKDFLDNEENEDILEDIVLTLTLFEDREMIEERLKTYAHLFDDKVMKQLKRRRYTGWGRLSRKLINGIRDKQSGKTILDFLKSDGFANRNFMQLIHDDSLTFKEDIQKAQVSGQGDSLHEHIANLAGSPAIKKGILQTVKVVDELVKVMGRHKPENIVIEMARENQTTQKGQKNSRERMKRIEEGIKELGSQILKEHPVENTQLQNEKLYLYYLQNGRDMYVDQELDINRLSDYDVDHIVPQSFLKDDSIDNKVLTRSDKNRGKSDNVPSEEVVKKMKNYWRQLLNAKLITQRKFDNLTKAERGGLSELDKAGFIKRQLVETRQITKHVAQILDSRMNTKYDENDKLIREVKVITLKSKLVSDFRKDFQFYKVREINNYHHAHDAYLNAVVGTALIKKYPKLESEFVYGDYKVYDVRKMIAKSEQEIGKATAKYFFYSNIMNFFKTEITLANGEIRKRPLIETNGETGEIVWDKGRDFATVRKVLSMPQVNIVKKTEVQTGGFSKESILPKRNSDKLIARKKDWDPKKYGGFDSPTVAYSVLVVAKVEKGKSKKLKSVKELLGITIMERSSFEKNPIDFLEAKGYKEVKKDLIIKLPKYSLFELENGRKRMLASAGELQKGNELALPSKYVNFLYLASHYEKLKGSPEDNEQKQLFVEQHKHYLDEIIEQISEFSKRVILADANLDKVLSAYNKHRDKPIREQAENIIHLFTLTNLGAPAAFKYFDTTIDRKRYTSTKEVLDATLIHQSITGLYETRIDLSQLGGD
Structure (SMILES),Average Inhibition activity,Inhibition activity Rep 1,Inhibition activity Rep 2
CN1c2ccc(-c3ccccc3F)cc2[C@@H]2[C@@H](CCN2C(=O)NC2CCCCC2)[C@H]1CO [BRD-K80765942],50.0,50.5,49.6
CN1c2ccc(C#Cc3cccnc3)cc2[C@@H]2[C@@H](CCN2S(=O)(=O)c2ccccc2F)[C@H]1CO [BRD-K39647256],54.9,51.3,58.4
CN1c2ccc(C#Cc3cccnc3)cc2[C@H]2[C@H](CCN2C(=O)C2CCCCC2)[C@@H]1CO [BRD-K89354425],82.0,85.4,78.7
COc1cccc(S(=O)(=O)N2CC[C@@H]3[C@H]2c2cc(C#Cc4cccnc4)ccc2N(C)[C@H]3CO)c1 [BRD-K04388421],51.2,49.1,53.3
COc1ccc(S(=O)(=O)N2CC[C@H]3[C@@H](CO)N(C)c4ccc(C#Cc5ccccc5OC)cc4[C@H]32)cc1 [BRD-K83448282],45.7,46.7,44.6
O=C(C1CCCCC1)N1CC[C@@H]2[C@H]1c1cc(C#Cc3ccc(F)cc3)ccc1N[C@@H]2CO [BRD-K88933335],45.7,47.8,43.7
N#Cc1ccc(-c2ccc3c(c2)[C@H]2[C@H](CCN2C(=O)Cc2ccccc2)[C@@H](CO)N3)cc1 [BRD-K63155325],57.6,63.0,52.1
COc1ccccc1C#Cc1ccc2c(c1)[C@H]1NCC[C@H]1[C@@H](CO)N2 [BRD-K39870434],68.1,53.7,82.5
OC[C@@H]1Nc2ccc(C#Cc3cccnc3)cc2[C@H]2NCC[C@@H]12 [BRD-K71200053],67.6,54.6,80.6
COCC(=O)N1CC[C@@H]2[C@H](CO)Nc3ccc(C#Cc4cccc(F)c4)cc3[C@@H]21 [BRD-K09759494],50.9,51.1,50.7
O=S(=O)(c1cccc(F)c1)N1CC[C@@H]2[C@H]1c1cc(C#Cc3ccccc3F)ccc1N[C@@H]2CO [BRD-K14474387],61.3,56.1,66.4
CCCC#Cc1ccc2c(c1)[C@@H]1[C@@H](CCN1S(=O)(=O)c1ccccc1OC)[C@@H](CO)N2 [BRD-K43330291],59.3,68.2,50.4
O=C(c1ccc(F)cc1)N1CC[C@@H]2[C@H]1c1cc(C#Cc3ccccc3F)ccc1N[C@@H]2CO [BRD-K79906422],51.1,51.3,50.9
COc1ccc(C#Cc2ccc3c(c2)[C@@H]2[C@@H](CCN2Cc2nccs2)[C@@H](CO)N3)cc1 [BRD-K70808105],51.5,47.4,55.6
COc1ccccc1C#Cc1ccc2c(c1)[C@H]1[C@H](CCN1C(=O)CN1CCOCC1)[C@H](CO)N2 [BRD-K26627503],56.9,47.5,66.3
COc1ccc(C#Cc2ccc3c(c2)[C@H]2[C@H](CCN2C(=O)c2ccccc2F)[C@H](CO)N3C)cc1 [BRD-K56594357],57.9,55.8,59.9
COc1ccc(S(=O)(=O)N2CC[C@@H]3[C@H](CO)N(C)c4ccc(-c5ccccc5F)cc4[C@@H]32)cc1 [BRD-K69451415],53.4,56.2,50.6
COc1ccc(-c2ccc3c(c2)[C@H]2[C@H](CCN2C(=O)Cc2ccncc2)[C@H](CO)N3)cc1 [BRD-K17925790],51.7,52.6,50.8
O=C(C1CCCCC1)N1CC[C@@H]2[C@H](CO)Nc3ccc(Br)cc3[C@@H]21 [BRD-K60987574],60.9,59.5,62.2

Structure (SMILES),Average Inhibition activity,Inhibition activity Rep 1,Inhibition activity Rep 2
CN1c2ccc(-c3ccc(C#N)cc3)cc2[C@@H]2[C@@H](CCN2S(=O)(=O)c2cccc(F)c2)[C@H]1CO [BRD-K40448176],51.6,52.1,51.2
CN1c2ccc(C#Cc3ccccc3)cc2[C@@H]2[C@@H](CCN2S(=O)(=O)c2cn(C)cn2)[C@H]1CO [BRD-A34097118],60.1,50.1,70.1
CN(C)C(=O)c1cccc(-c2ccc3c(c2)[C@@H]2[C@@H](CCN2C(=O)c2ccc4c(c2)OCO4)[C@@H](CO)N3)c1 [BRD-K83829793],53.1,61.0,45.2
CN1c2ccc(-c3cccc(C#N)c3)cc2[C@H]2[C@H](CCN2C(=O)C2CCCCC2)[C@H]1CO [BRD-K53346571],52.7,49.1,56.3
COc1cccc(-c2ccc3c(c2)[C@@H]2[C@@H](CCN2C(=O)c2cnccn2)[C@@H](CO)N3)c1 [BRD-K11943259],58.8,53.0,64.6
OC[C@@H]1Nc2ccc(-c3ccccc3)cc2[C@@H]2[C@H]1CCN2Cc1ccc(F)cc1 [BRD-K90247032],49.3,47.6,51.1
CCC(=O)N1CC[C@@H]2[C@H]1c1cc(C#Cc3ccc(F)cc3)ccc1N[C@@H]2CO [BRD-K49114971],56.1,49.0,63.1
CN1c2ccc(-c3ccccc3F)cc2[C@H]2[C@H](CCN2C(=O)NC2CCCCC2)[C@H]1CO [BRD-K35104316],49.1,54.2,44.1
O=C(c1cccc(F)c1)N1CC[C@@H]2[C@H](CO)Nc3ccc(-c4ccccc4)cc3[C@@H]21 [BRD-K94204229],57.0,47.5,66.6
O=C(C1CC1)N1CC[C@@H]2[C@H](CO)Nc3ccc(Br)cc3[C@@H]21 [BRD-K31090697],48.0,46.0,49.9
CN1c2ccc(C#Cc3ccc(F)cc3)cc2[C@@H]2[C@@H](CCN2C(=O)CN2CCOCC2)[C@H]1CO [BRD-K82266131],56.9,51.7,62.1
COc1ccc(S(=O)(=O)N2CC[C@@H]3[C@@H](CO)N(C)c4ccc(-c5ccc(F)cc5)cc4[C@@H]32)cc1 [BRD-K16827616],60.5,76.4,44.6
COc1cccc(S(=O)(=O)N2CC[C@H]3[C@@H](CO)N(C)c4ccc(C#Cc5cccnc5)cc4[C@H]32)c1 [BRD-K92333822],55.1,53.1,57.1
O=C(C1CCCCC1)N1CC[C@@H]2[C@H]1c1cc(Br)ccc1N[C@@H]2CO [BRD-K20055065],70.7,67.5,73.9
C/C=C/c1ccc2c(c1)[C@H]1[C@H](CCN1C(=O)c1ccc(F)cc1)[C@H](CO)N2 [BRD-K81261525],74.3,71.3,77.4
CN1c2ccc(C#Cc3cccnc3)cc2[C@H]2[C@H](CCN2S(=O)(=O)c2ccccc2F)[C@@H]1CO [BRD-K58893765],62.6,67.8,57.4
CN1c2ccc(C#Cc3cccnc3)cc2[C@@H]2[C@@H](CCN2C(=O)c2cccc(F)c2)[C@@H]1CO [BRD-K18296007],64.7,69.6,59.7
COc1ccccc1NC(=O)N1CC[C@@H]2[C@H]1c1cc(C#Cc3cccc(F)c3)ccc1N(C)[C@@H]2CO [BRD-K77165899],53.5,47.0,59.9
O=S(=O)(c1ccc(F)cc1)N1CC[C@@H]2[C@H](CO)Nc3ccc(C#CC4CC4)cc3[C@@H]21 [BRD-K47320872],45.1,44.5,45.7
